Laboratory results as given in patent US8835472B2, “Compounds, pharmaceutical compositions and uses thereof” (Boehringer Ingelheim International GmbH, priority 2010, dated 2014).

biological target: human ACC2 (Homo sapiens (Human), UniProt O00763); test: ACC2 assay, spectrophotometric 384 well assay (NADH-linked, coupled lactate dehydrogenase/pyruvate kinase reaction); assay type: biochemical; settings: hACC2 construct lacking the 128 N-terminal amino acids; 25° C., 340 nm over 15 minutes
In short: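 Kinetic NADH-linked assay (pyruvate kinase/lactate dehydrogenase coupling) with baculovirus-expressed hACC2 missing its first 128 amino acids. Started with 500 μM ATP and 200 μM each NADH and acetyl-CoA; slope followed 15 min at 25 °C, pH 7.5. No-acetyl-CoA wells define 0%; IC50 by nonlinear regression.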

Chain of human ACC2 (O00763 129-2458): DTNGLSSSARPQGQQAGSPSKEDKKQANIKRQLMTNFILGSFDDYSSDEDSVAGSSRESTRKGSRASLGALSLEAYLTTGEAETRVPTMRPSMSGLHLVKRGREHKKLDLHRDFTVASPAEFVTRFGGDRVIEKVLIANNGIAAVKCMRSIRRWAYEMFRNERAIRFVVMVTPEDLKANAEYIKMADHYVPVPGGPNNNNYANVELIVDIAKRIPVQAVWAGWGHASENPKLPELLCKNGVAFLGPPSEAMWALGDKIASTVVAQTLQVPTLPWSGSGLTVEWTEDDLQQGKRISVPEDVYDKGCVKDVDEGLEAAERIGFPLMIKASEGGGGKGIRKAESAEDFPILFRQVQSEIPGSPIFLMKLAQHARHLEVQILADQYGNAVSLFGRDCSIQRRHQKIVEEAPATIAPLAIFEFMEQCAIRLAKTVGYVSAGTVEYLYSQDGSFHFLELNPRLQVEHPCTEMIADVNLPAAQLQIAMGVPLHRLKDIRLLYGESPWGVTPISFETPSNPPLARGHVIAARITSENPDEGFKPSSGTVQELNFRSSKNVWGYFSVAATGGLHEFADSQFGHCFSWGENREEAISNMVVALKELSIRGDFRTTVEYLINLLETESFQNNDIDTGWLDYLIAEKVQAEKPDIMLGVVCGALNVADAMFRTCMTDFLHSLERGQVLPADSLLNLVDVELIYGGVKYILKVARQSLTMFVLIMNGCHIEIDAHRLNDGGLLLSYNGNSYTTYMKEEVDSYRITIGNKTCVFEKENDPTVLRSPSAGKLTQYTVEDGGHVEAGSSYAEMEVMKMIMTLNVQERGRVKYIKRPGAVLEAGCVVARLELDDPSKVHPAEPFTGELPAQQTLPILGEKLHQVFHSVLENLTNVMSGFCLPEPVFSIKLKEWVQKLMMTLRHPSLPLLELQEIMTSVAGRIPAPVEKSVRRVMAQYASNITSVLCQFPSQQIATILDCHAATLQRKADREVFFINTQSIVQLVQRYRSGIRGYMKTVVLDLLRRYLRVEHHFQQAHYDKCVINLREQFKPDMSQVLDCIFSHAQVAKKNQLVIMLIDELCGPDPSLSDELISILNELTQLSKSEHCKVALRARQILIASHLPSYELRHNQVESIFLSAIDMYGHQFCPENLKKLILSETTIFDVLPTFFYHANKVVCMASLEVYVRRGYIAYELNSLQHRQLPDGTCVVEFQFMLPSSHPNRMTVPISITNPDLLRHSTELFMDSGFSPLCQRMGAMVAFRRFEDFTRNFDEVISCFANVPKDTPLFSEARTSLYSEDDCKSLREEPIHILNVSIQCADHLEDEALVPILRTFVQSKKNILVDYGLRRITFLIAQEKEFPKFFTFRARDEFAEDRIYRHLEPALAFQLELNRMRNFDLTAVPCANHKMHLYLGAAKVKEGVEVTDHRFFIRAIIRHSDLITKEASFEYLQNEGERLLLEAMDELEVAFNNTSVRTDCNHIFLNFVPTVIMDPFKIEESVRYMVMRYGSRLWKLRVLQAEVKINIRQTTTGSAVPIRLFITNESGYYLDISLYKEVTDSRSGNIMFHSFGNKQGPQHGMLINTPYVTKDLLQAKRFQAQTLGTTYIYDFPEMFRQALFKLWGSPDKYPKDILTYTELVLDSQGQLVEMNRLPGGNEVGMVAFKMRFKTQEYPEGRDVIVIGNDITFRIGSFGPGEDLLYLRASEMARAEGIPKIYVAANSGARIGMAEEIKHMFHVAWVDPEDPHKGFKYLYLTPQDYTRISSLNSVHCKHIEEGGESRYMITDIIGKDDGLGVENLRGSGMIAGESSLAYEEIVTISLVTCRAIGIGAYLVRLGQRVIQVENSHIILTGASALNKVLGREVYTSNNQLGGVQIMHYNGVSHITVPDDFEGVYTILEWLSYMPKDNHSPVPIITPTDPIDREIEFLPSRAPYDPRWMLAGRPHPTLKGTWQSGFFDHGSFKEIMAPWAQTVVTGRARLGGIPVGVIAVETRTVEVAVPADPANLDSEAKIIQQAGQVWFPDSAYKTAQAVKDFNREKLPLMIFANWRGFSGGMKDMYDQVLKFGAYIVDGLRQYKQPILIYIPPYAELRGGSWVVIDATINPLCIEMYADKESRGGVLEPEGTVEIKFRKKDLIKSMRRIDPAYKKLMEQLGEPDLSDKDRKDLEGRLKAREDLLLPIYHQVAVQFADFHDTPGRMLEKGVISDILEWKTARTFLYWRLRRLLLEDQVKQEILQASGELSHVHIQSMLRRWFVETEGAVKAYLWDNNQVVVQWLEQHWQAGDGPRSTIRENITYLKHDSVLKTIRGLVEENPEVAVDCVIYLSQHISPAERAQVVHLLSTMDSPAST

SMILES | IC50
CCC(COC)Oc1ccc(C#Cc2ccc(CC(C)NC(C)=O)cc2)cc1 (centres unmarked) [Example 9.35] | 660 nM
CC(=O)NC(C)Cc1ccc(C#Cc2ccc(OCCc3cn[nH]c3)cc2)cc1 (centres unmarked) [Example 9.36] | 420 nM
CC(=O)NC(C)Cc1ccc(C#Cc2ccc(OCCn3ccnc3)cc2)cc1 (centres unmarked) [Example 9.37] | 520 nM
CC(=O)NC(C)Cc1ccc(C#Cc2ccc(OCc3c[nH]cn3)cc2)cc1 (centres unmarked) [Example 9.38] | 2600 nM
CC(=O)NC(C)Cc1ccc(C#Cc2ccc(OCC(C)F)cc2)cc1 (centres unmarked) [Example 9.39] | 180 nM
CC(=O)NC(C)Cc1ccc(C#Cc2ccc(OCC3CC3(F)F)cc2)cc1 (centres unmarked) [Example 9.40] | 50 nM
CC(=O)NC(C)Cc1ccc(C#Cc2ccc(OCc3cnco3)cc2)cc1 (centres unmarked) [Example 9.41] | 500 nM
CC(=O)NC(C)Cc1ccc(C#Cc2ccc(OCc3cccnc3)cc2)cc1 (centres unmarked) [Example 9.42] | 630 nM
CC(=O)NC(C)Cc1ccc(C#Cc2ccc(Oc3cncnc3)cc2)cc1 (centres unmarked) [Example 10.1, N-(1-(4-((4-(Pyrimidin-5-yloxy)phenyl)ethynyl)phenyl)propan-2-yl)acetamide] | 190 nM
CC(=O)NC(C)Cc1ccc(C#Cc2ccc(Oc3ccncc3)cc2)cc1 (centres unmarked) [Example 10.2] | 1200 nM
CC(=O)NC(C)Cc1ccc(C#Cc2cccc(Oc3cncnc3)c2)cc1 (centres unmarked) [Example 10.3] | 1800 nM
COCCN(C)c1nccc(C#Cc2ccc(CC(C)NC(C)=O)cc2)n1 (centres unmarked) [Example 11.1, N-(1-(4-((2-((2-Methoxyethyl)(methyl)amino)pyrimidin-4-yl)ethynyl)phenyl)propan-2-yl)acetamide] | 1200 nM
CC(=O)NC(C)Cc1ccc(C#Cc2ccnc(N(C)Cc3ccncc3)n2)cc1 (centres unmarked) [Example 11.2] | 30000 nM
CCCNc1nccc(C#Cc2ccc(CC(C)NC(C)=O)cc2)n1 (centres unmarked) [Example 11.3] | 2300 nM
CCN(C)c1nccc(C#Cc2ccc(CC(C)NC(C)=O)cc2)n1 (centres unmarked) [Example 11.4] | 530 nM
COc1ccc(Nc2nccc(C#Cc3ccc(CC(C)NC(C)=O)cc3)n2)cn1 (centres unmarked) [Example 11.5] | 7200 nM
CC(=O)NC(C)Cc1ccc(C#Cc2ccnc(N(C)c3ccccc3)n2)cc1 (centres unmarked) [Example 11.6] | 930 nM
CC(=O)NC(C)Cc1ccc(C#Cc2ccnc(NC(C)C)n2)cc1 (centres unmarked) [Example 11.7] | 12700 nM
CC(=O)NC(C)Cc1ccc(C#Cc2ccnc(N(C)C(C)C)n2)cc1 (centres unmarked) [Example 11.8] | 750 nM
CC(=O)NC(C)Cc1ccc(C#Cc2ccnc(N(C)C3CCC(O)CC3)n2)cc1 (centres unmarked) [Example 11.9] | 4000 nM
CC(=O)NC(C)Cc1ccc(C#Cc2ccnc(N3CCC(CO)C3)n2)cc1 (centres unmarked) [Example 11.10] | 16700 nM

SMILES | IC50
CC(=O)NC(C)Cc1ccc(C#Cc2ccnc(N(C)C3CCCCC3)n2)cc1 (centres unmarked) [Example 11.11] | 260 nM
CC(=O)NC(C)Cc1ccc(C#Cc2ccnc(N3CCC3)n2)cc1 (centres unmarked) [Example 11.12] | 5600 nM
CC(=O)NC(C)Cc1ccc(C#Cc2ccnc(NCC3CC3)n2)cc1 (centres unmarked) [Example 11.13] | 1900 nM
CCNc1nccc(C#Cc2ccc(CC(C)NC(C)=O)cc2)n1 (centres unmarked) [Example 11.14] | 13800 nM
CC(=O)NC(C)Cc1ccc(C#Cc2ccnc(N(C)CC(C)C)n2)cc1 (centres unmarked) [Example 11.15] | 330 nM
CC(=O)NC(C)Cc1ccc(C#Cc2ccnc(N3CCCC(F)C3)n2)cc1 (centres unmarked) [Example 11.16] | 680 nM
COC(C)CN(C)c1nccc(C#Cc2ccc(CC(C)NC(C)=O)cc2)n1 (centres unmarked) [Example 11.17] | 1700 nM
CC(=O)NC(C)Cc1ccc(C#Cc2ccnc(N3CCC(C(F)(F)F)CC3)n2)cc1 (centres unmarked) [Example 11.18] | 510 nM
CC(=O)NC(C)Cc1ccc(C#Cc2ccnc(NC(C)C3CC3)n2)cc1 (centres unmarked) [Example 11.19] | 5900 nM
CC(=O)NC(C)Cc1ccc(C#Cc2ccnc(N(C)CC3CC3)n2)cc1 (centres unmarked) [Example 11.21] | 250 nM
CC(=O)NC(C)Cc1ccc(C#Cc2ccnc(N3CC(F)(F)C3)n2)cc1 (centres unmarked) [Example 11.22] | 8100 nM
CC(=O)NC(C)Cc1ccc(C#Cc2ccnc(N(C)CC3CCCCC3)n2)cc1 (centres unmarked) [Example 11.23] | 370 nM
CC(=O)NC(C)Cc1ccc(C#Cc2ccnc(N3CCC(C)(C)C3)n2)cc1 (centres unmarked) [Example 11.24] | 390 nM
CC#CCN(CC(C)C)c1nccc(C#Cc2ccc(CC(C)NC(C)=O)cc2)n1 (centres unmarked) [Example 11.25] | 1800 nM
CC(=O)NC(C)Cc1ccc(C#Cc2ccnc(N3CCC4(CCC4)C3)n2)cc1 (centres unmarked) [Example 11.26] | 430 nM
CC(=O)NC(C)Cc1ccc(C#Cc2ccnc(N3CCCC(c4ccccc4)C3)n2)cc1 (centres unmarked) [Example 11.27] | 400 nM
CC(=O)NC(C)Cc1ccc(C#Cc2ccnc(N3CCC4(CCCC4)C3)n2)cc1 (centres unmarked) [Example 11.28] | 380 nM
CC(=O)NC(C)Cc1ccc(C#Cc2ccnc(N3CCC(C#N)C3)n2)cc1 (centres unmarked) [Example 11.29] | 4500 nM
CC(=O)NC(C)Cc1ccc(C#Cc2ccnc(N(C)C3CCOC3)n2)cc1 (centres unmarked) [Example 11.31] | 2000 nM
CC(=O)NC(C)Cc1ccc(C#Cc2ccnc(N(C)CCC(C)(C)C)n2)cc1 (centres unmarked) [Example 11.32] | 350 nM
CC(=O)NC(C)Cc1ccc(C#Cc2ccnc(N(C)CC(F)(F)F)n2)cc1 (centres unmarked) [Example 11.33] | 680 nM

SMILES | IC50
COC1CN(c2nccc(C#Cc3ccc(CC(C)NC(C)=O)cc3)n2)C1 (centres unmarked) [Example 11.34] | 13900 nM
COCC1CCCN1c1nccc(C#Cc2ccc(CC(C)NC(C)=O)cc2)n1 (centres unmarked) [Example 11.35] | 2400 nM
CC(=O)NC(C)Cc1ccc(C#Cc2ccnc(N3CCCC(C(F)(F)F)C3)n2)cc1 (centres unmarked) [Example 11.36] | 690 nM
CC(=O)NC(C)Cc1ccc(C#Cc2ccnc(N3CCN(C)CC3)n2)cc1 (centres unmarked) [Example 11.37] | 14300 nM
CC(=O)NC(C)Cc1ccc(C#Cc2ccnc(N3CCCCC3)n2)cc1 (centres unmarked) [Example 11.38] | 430 nM
CC(=O)NC(C)Cc1ccc(C#Cc2ccnc(N3CCCCC3C)n2)cc1 (centres unmarked) [Example 11.39] | 720 nM
CC(=O)NC(C)Cc1ccc(C#Cc2ccnc(N3CCC(c4ccccc4)CC3)n2)cc1 (centres unmarked) [Example 11.40] | 1100 nM
CC(=O)NC(C)Cc1ccc(C#Cc2ccnc(Nc3ccccc3)n2)cc1 (centres unmarked) [Example 11.41] | 2700 nM
CC(=O)NC(C)Cc1ccc(C#Cc2ccnc(N3CCOCC3)n2)cc1 (centres unmarked) [Example 11.42] | 620 nM
CC(=O)NC(C)Cc1ccc(C#Cc2ccnc(N3CCCC3)n2)cc1 (centres unmarked) [Example 11.43] | 930 nM
CC(=O)NC(C)Cc1ccc(C#Cc2ccnc(NCC(C)C)n2)cc1 (centres unmarked) [Example 11.44] | 1300 nM
CC(=O)NC(C)Cc1ccc(C#Cc2ccnc(N(C)Cc3ccccc3)n2)cc1 (centres unmarked) [Example 11.45] | 530 nM
CCCN(C)c1nccc(C#Cc2ccc(CC(C)NC(C)=O)cc2)n1 (centres unmarked) [Example 11.46] | 290 nM
CC(=O)NC(C)Cc1ccc(C#Cc2ccnc(N3CCN(S(C)(=O)=O)CC3)n2)cc1 (centres unmarked) [Example 11.47] | 7400 nM
COC(=O)CN(C)c1nccc(C#Cc2ccc(CC(C)NC(C)=O)cc2)n1 (centres unmarked) [Example 11.48] | 10300 nM
CCN(CC)c1nccc(C#Cc2ccc(CC(C)NC(C)=O)cc2)n1 (centres unmarked) [Example 11.49] | 460 nM
CCOc1nccc(C#Cc2ccc(CC(C)NC(C)=O)cc2)n1 (centres unmarked) [Example 12.1, N-(1-(4-((2-ethoxypyrimidin-4-yl)ethynyl)phenyl)propan-2-yl)acetamide] | 8500 nM
CC(=O)NC(C)Cc1ccc(C#Cc2ccnc(OC3CCCC3)n2)cc1 (centres unmarked) [Example 12.2] | 4300 nM
CC(=O)NC(C)Cc1ccc(C#Cc2ccnc(Oc3ccccc3)n2)cc1 (centres unmarked) [Example 12.3] | 1300 nM
CC(=O)NC(C)Cc1ccc(C#Cc2ccnc(OCC(C)C)n2)cc1 (centres unmarked) [Example 12.4] | 980 nM
CC(=O)NC(C)Cc1ccc(C#Cc2ccnc(OCC3CC3)n2)cc1 (centres unmarked) [Example 12.5] | 1600 nM

SMILES | IC50
CC(=O)NC(C)Cc1ccc(C#Cc2ccnc(OC3CCC3)n2)cc1 (centres unmarked) [Example 12.6] | 1100 nM
CCC(C)Oc1nccc(C#Cc2ccc(CC(C)NC(C)=O)cc2)n1 (centres unmarked) [Example 12.7] | 3600 nM
CCCOc1nccc(C#Cc2ccc(CC(C)NC(C)=O)cc2)n1 (centres unmarked) [Example 12.8] | 2200 nM
COCCOc1ncc(C#Cc2ccc(CC(C)NC(C)=O)cc2)cn1 (centres unmarked) [Example 12.9] | 2100 nM
CC(=O)NC(C)Cc1ccc(C#Cc2cnc(OC3CCOC3)nc2)cc1 (centres unmarked) [Example 12.10] | 630 nM
CC(=O)NC(C)Cc1ccc(C#Cc2cnc(OCC(C)C)nc2)cc1 (centres unmarked) [Example 12.11] | 670 nM
CC(=O)NC(C)Cc1ccc(C#Cc2cnc(OC3CCC3)nc2)cc1 (centres unmarked) [Example 12.12] | 90 nM
CC(=O)NC(C)Cc1ccc(C#Cc2cnc(OCC3(C)CC3)nc2)cc1 (centres unmarked) [Example 12.13] | 430 nM
CC(=O)NC(C)Cc1ccc(C#Cc2cnc(OCc3cc(C)on3)nc2)cc1 (centres unmarked) [Example 12.14] | 2500 nM
CCCOc1ncc(C#Cc2ccc(CC(C)NC(C)=O)cc2)cn1 (centres unmarked) [Example 12.15] | 230 nM
CC(=O)NC(C)Cc1ccc(C#Cc2cnc(Oc3ccccc3)nc2)cc1 (centres unmarked) [Example 12.16] | 170 nM
CCOc1ncc(C#Cc2ccc(CC(C)NC(C)=O)cc2)cn1 (centres unmarked) [Example 12.17] | 380 nM
CC(=O)NC(C)Cc1ccc(C#Cc2ccnc(OC(C)C)n2)cc1 (centres unmarked) [Example 12.18] | 7100 nM
CC(=O)NC(C)Cc1ccc(C#Cc2cnc(OCCC(C)C)nc2)cc1 (centres unmarked) [Example 12.19] | 1200 nM
CC(=O)NC(C)Cc1ccc(C#Cc2cnc(OCc3ccccc3)nc2)cc1 (centres unmarked) [Example 12.20] | 530 nM
CC(=O)NC(C)Cc1ccc(C#Cc2cnc(OC(C)C)nc2)cc1 (centres unmarked) [Example 12.21] | 380 nM
CC(Cc1ccc(C#Cc2cnc(OC3CCC3)nc2)cc1)NC(=O)C1CC1 (centres unmarked) [Example 12.22] | 640 nM
CCCOc1ncc(C#Cc2ccc(CC(C)NC(=O)C3CC3)cc2)cn1 (centres unmarked) [Example 12.23] | 1100 nM
CC(Cc1ccc(C#Cc2cnc(Oc3ccccc3)nc2)cc1)NC(=O)C1CC1 (centres unmarked) [Example 12.24] | 590 nM
CC(Cc1ccc(C#Cc2cnc(OC(C)C)nc2)cc1)NC(=O)C1CC1 (centres unmarked) [Example 12.25] | 2400 nM
